Laboratory results: ChEMBL document CHEMBL3046593, “Studies on the synthesis of some new substituted benzylamino and phenyl-acrylamido-methyl flavone derivatives” (2007)
Active and inactive are the calls of the source. The rule behind the calls is not given here.

Experiments:
Type in all cases: functional
Conditions in all cases: for zone of inhibition at 3000 µg/mL: read-out: DIZ
[1] = test system: Escherichia coli; test: Antibacterial activity against Escherichia coli RSKK 313 at 3000 ug/ml after 18 to 24 hr by disk diffusion method
[2] = test system: Staphylococcus aureus; test: Antibacterial activity against Staphylococcus aureus ATCC 250 at 3000 ug/ml after 18 to 24 hr by disk diffusion method
[3] = test system: Candida albicans; test: Antifungal activity against Candida albicans RSKK 628 at 3000 ug/ml after 18 to 24 hr by disk diffusion method

| SMILES | diameter of the inhibition zone (DIZ) [1] | zone of inhibition at 3000 µg/mL [2] [mm] | zone of inhibition at 3000 µg/mL [3] [mm] | diameter of the inhibition zone (DIZ) [2] | zone of inhibition at 3000 µg/mL [1] [mm] | diameter of the inhibition zone (DIZ) [3] |
| --- | --- | --- | --- | --- | --- | --- |
| O=c1cc(-c2cccc(CNCc3ccc(Cl)cc3)c2)oc2ccccc12 | inactive | 25 | 15 |  |  |  |
| O=C(/C=C/c1ccccc1)N(Cc1cccc(-c2cc(=O)c3ccccc3o2)c1)Cc1ccc(Cl)c(Cl)c1 | inactive |  | 15 | inactive |  |  |
| O=c1cc(-c2cccc(CNCc3ccc(Cl)c(Cl)c3)c2)oc2ccccc12 |  | 16 | 10 |  | 12 |  |
| O=C(/C=C/c1ccccc1)N(Cc1cccc(-c2cc(=O)c3ccccc3o2)c1)Cc1ccc(Cl)cc1Cl | inactive |  | 15 | inactive |  |  |
| O=C(/C=C/c1ccccc1)N(Cc1ccc(F)cc1)Cc1cccc(-c2cc(=O)c3ccccc3o2)c1 | inactive |  |  | inactive |  | inactive |
| O=C(/C=C/c1ccccc1)N(Cc1ccc(Cl)cc1)Cc1cccc(-c2cc(=O)c3ccccc3o2)c1 |  |  | 13 | inactive | 12 |  |
| O=c1cc(-c2cccc(CNCc3ccc(Cl)cc3Cl)c2)oc2ccccc12 | inactive | 10 |  |  |  | inactive |
| O=c1cc(-c2cccc(CNCc3ccccc3)c2)oc2ccccc12 |  | 16 | 25 |  | 10 |  |
| CC1(C)S[C@@H]2[C@H](NC(=O)[C@H](N)c3ccccc3)C(=O)N2[C@H]1C(=O)O [AMPICILLIN] |  | 30 |  |  | 20 |  |
| Clc1ccc(COC(Cn2ccnc2)c2ccc(Cl)cc2Cl)c(Cl)c1 (stereo not drawn) [MICONAZOLE] |  |  | 35 |  |  |  |
| O=c1cc(-c2cccc(CNCc3ccc(F)cc3)c2)oc2ccccc12 | inactive | 15 | 20 |  |  |  |
| O=C(/C=C/c1ccccc1)N(Cc1ccccc1)Cc1cccc(-c2cc(=O)c3ccccc3o2)c1 | inactive | 10 |  |  |  | inactive |
